Measured values published in patent US20070213303A1, “Methods for reducing platelet activation and for the treatment of thrombotic events” (priority 2005, published 2007).

Tests used:
Assay type in all cases: cell-based, human
CD41a = assay: Flow cytometry, platelet surface expression of CD41a
Protocol: (§1) Venous blood (8 ml) is collected in a plastic tube containing 2 ml of acid-citrate-dextrose (ACD) (7.3 g citric acid, 22.0 g sodium citrate.2H2O and 24.5 glucose in 1000 ml distilled water) and mixed well. The blood-ACD mixture is centrifuged at 1000 r.p.m. for 10 minutes at room temperature. The upper ⅔ of the platelet-rich plasma (PRP) is then collected and adjusted to pH=6.5 by adding ACD. The PRP is then centrifuged at 3000 r.p.m. for 10 minutes. The supernatant is removed and the platelet pellet is gently resuspended in 4 cc of the washing buffer (10 mM Tris/HCl, 0.15 M NaCl, 20 mM EDTA, pH=7.4). Platelets are washed in the washing buffer, and in TBS (10 mM Tris, 0.15 M NaCl, pH=7.4). All cells are then divided into the appropriate number of tubes. By way of example, if 9 different surface markers are evaluated, as described herein, then the cells should be divided into ten tubes, such that nine tubes containing washed platelets are incubated with 5 μl fluorescein isothiocyanate (FITC)-conjugated antibodies in the dark at +4° C. for 30 minutes, and one tube remains unstained and serves as a negative control. Surface antigen expression is measured with monoclonal murine anti-human antibodies, such as CD9 (p24); CD41a (IIb/IIIa, aIIbb3); CD42b (Ib); CD61(IIIa) (DAKO Corporation, Carpinteria, Calif.); CD49b (VLA-2, or a2b1); CD62p (P-selectin); CD31 (PECAM-1); CD 41b (IIb); and CD51/CD61 (vitronectin receptor, avb3) (PharMingen, San Diego Calif.), as the expression of these antigens on the cells is associated with platelet activation. After incubation, the cells are washed with TBS and resuspended in 0.25 ml of 1% paraformaldehyde. Samples are stored in the refrigerator at +4° C., and analyzed on a Becton Dickinson FACScan flow cytometer with laser output of 15 mw, excitation at 488 nm, and emission detection at 530±30 nm. The data can be collected and stored in list mode, and then analyzed using CELLQuest® software. FACS procedures are described in detail in, e.g., Gurbel, P. A. et al., J Amer Coll Cardiol 31: 1466-1473 (1998); Serebruany, V. L. et al., Am Heart J 136: 398-405 (1998); Gurbel, P. A. et al., Coron Artery Dis 9: 451-456 (1998) and Serebruany, V. L. et al., Arterioscl Thromb Vasc Biol 19: 153-158 (1999).
(§2) Four cc of blood is collected in a tube, containing 2 cc of acid-citrate-dextrose (ACD; 7.3 g citric acid, 22.0 g sodium citrate.2H2O and 24.5 glucose in 1000 ml distilled water) and mixed well. The buffer, TBS (10 mM Tris, 0.15 M NaCl, pH 7.4) and the following fluorescein isothiocyanate (FITC) conjugated monoclonal antibodies (PharMingen, San Diego, Calif., USA, and DAKO, Calif., USA) are removed from a refrigerator and allowed to warm at room temperature (RT) prior to their use. The non-limiting examples of antibodies that can be used include CD41 (IIb/IIIa), CD31 (PECAM-1), CD62p (P-selectin), and CD51/61 (Vitronectin receptor). For each subject, six amber tubes (1.25 ml) are one Eppendorf tube (1.5 ml) are obtained and marked appropriately 450 μl of TBS buffer is pipetted to the labeled Eppendorf tube. A patient's whole blood tube is inverted gently twice to mix, and 50 μl of whole blood is pipetted to the appropriately labeled Eppendorf tube. The Eppendorf tube is capped and the diluted whole blood is mixed by inverting the Eppendorf tube gently two times, followed by pipetting 50 μl of diluted whole blood to each amber tube. […] The samples are analyzed on a Becton Dickinson FACScan flow cytometer. […]

PAC-1 = assay: Flow cytometry, activity with PAC-1 antibody
Protocol: as §1, §2

[1] = tested on: vitronectin receptor (CD51/CD61); assay: Flow cytometry, platelet surface expression of CD51/61
Protocol: as §1, §2

P-selectin (CD62p) = assay: Flow cytometry, platelet surface expression of CD62p
Protocol: as §1, §2

LAMP-1 (CD107a) = assay: Flow cytometry, platelet surface expression of CD107a
Protocol: as §1, §2

GP37 (CD165) = assay: Flow cytometry, platelet surface expression of CD165
Protocol: as §1, §2

thrombospondin (CD36) = assay: Flow cytometry, platelet surface expression of thrombospondin
Protocol: as §1, §2

CC(C)(Sc1cc(C(C)(C)C)c(O)c(C(C)(C)C)c1)Sc1cc(C(C)(C)C)c(OC(=O)CCC(=O)O)c(C(C)(C)C)c1 [Compound A]
Flow cytometry CD41a (CD41a; preincubation 15 μg/mL): 185.3 ± 21.3
Flow cytometry CD41a (CD41a; preincubation 30 μg/mL): 170.3 ± 16.7
Flow cytometry CD41a (CD41a; preincubation 60 μg/mL): 165.5 ± 16.7
Flow cytometry CD41a (CD41a; preincubation 90 μg/mL): 160.9 ± 23.2
Surface platelet expression of GP IIb/IIIa (CD41a) antigen (CD41a; pretreated samples): decreased
Flow cytometry PAC-1 (PAC-1; preincubation 15 μg/mL): 11.4 ± 1.1
Flow cytometry PAC-1 (PAC-1; preincubation 30 μg/mL): 11.2 ± 1.4
Flow cytometry PAC-1 (PAC-1; preincubation 60 μg/mL): 10.9 ± 2.2
Flow cytometry PAC-1 (PAC-1; preincubation 90 μg/mL): 10.3 ± 1.8
GP IIb/IIIa activity with PAC-1 antibody (PAC-1; pretreated samples): decreased
vitronectin receptor (CD51/CD61) [1]: little or no effect
Flow cytometry CD51/61 ([1]; preincubation 15 μg/mL): 10.9 ± 2.1
Flow cytometry CD51/61 ([1]; preincubation 30 μg/mL): 11.4 ± 1.6
Flow cytometry CD51/61 ([1]; preincubation 60 μg/mL): 11.8 ± 2.1
Flow cytometry CD51/61 ([1]; preincubation 90 μg/mL): 10.2 ± 1.7
P-selectin (CD62p) (P-selectin (CD62p)): little or no effect
Flow cytometry CD62p (P-selectin (CD62p); preincubation 15 μg/mL): 9.8 ± 1.8
Flow cytometry CD62p (P-selectin (CD62p); preincubation 30 μg/mL): 10.2 ± 1.9
Flow cytometry CD62p (P-selectin (CD62p); preincubation 60 μg/mL): 10.5 ± 1.8
Flow cytometry CD62p (P-selectin (CD62p); preincubation 90 μg/mL): 9.7 ± 1.8
LAMP-1 (CD107a) (LAMP-1 (CD107a)): little or no effect
Flow cytometry CD107a (LAMP-1 (CD107a); preincubation 15 μg/mL): 6.7 ± 1.5
Flow cytometry CD107a (LAMP-1 (CD107a); preincubation 30 μg/mL): 6.4 ± 1.4
Flow cytometry CD107a (LAMP-1 (CD107a); preincubation 60 μg/mL): 6.1 ± 1.5
Flow cytometry CD107a (LAMP-1 (CD107a); preincubation 90 μg/mL): 6.4 ± 1.6
GP37 (CD165) (GP37 (CD165)): little or no effect
Flow cytometry CD165 (GP37 (CD165); preincubation 15 μg/mL): 26.9 ± 2.7
Flow cytometry CD165 (GP37 (CD165); preincubation 30 μg/mL): 24.7 ± 2.7
Flow cytometry CD165 (GP37 (CD165); preincubation 60 μg/mL): 26.4 ± 3.7
Flow cytometry CD165 (GP37 (CD165); preincubation 90 μg/mL): 25.5 ± 3.2
thrombospondin (CD36) (thrombospondin (CD36)): little or no effect
Flow cytometry Thrombospondin (thrombospondin (CD36); preincubation 15 μg/mL): 10.1 ± 1.9
Flow cytometry Thrombospondin (thrombospondin (CD36); preincubation 30 μg/mL): 11.0 ± 2.3
Flow cytometry Thrombospondin (thrombospondin (CD36); preincubation 60 μg/mL): 10.3 ± 1.9
Flow cytometry Thrombospondin (thrombospondin (CD36); preincubation 90 μg/mL): 9.6 ± 2.0
